Values quoted from earlier work, collected in US20220287943A1, “METHOD FOR TREATING KERATIN MATERIAL, COMPRISING THE APPLICATION OF AN ORGANIC C1-C6-ALKOXY-SILANE AND AN AMINO ACID AND/OR AMINO ACID DERIVATIVE” (Henkel AG & Co. KGaA, priority 2019, published 2022).

Conditions: for solubility in water: about 25° C.

| solubility in water | solubility in water (in words) (at about 25° C.) | SMILES |
| --- | --- | --- |
| more than 7 g/L |  | O=S(=O)([O-])c1ccc(N=Nc2c(O)ccc3ccccc23)cc1.[Na+] [Acid Orange 7, sodium salt of 4-[(2-hydroxy-1-naphthy)azo]lbenzene sulphonate] |
| about 2.5 g/L |  | Nc1cc(S(=O)(=O)[O-])cc2cc(S(=O)(=O)[O-])c(N=Nc3ccccc3)c(O)c12.[Na+].[Na+] [Acid Red 33, diantrium salt of 5-amino-4-hydroxy-3-(phenylazo)-naphthalene-2,7-disulphonate] |
|  | highly soluble in water | O=C([O-])C1=NN(c2ccc(S(=O)(=O)[O-])cc2)C(=O)C1N=Nc1ccc(S(=O)(=O)[O-])cc1.[Na+].[Na+].[Na+] (stereo not drawn) [Acid Yellow 23, trisodium salt of 4,5-dihydro-5-oxo-1-(4-sulfophenyl)-4-((4-sulfophenyl)azo)-1H-pyrazole-3-carboxylic acid] |
